# Source: ChEMBL document CHEMBL1201862, “PubChem BioAssay data set” (2004)
# Calls of active or inactive are those of the source. Rule as the data show it: actives have a measured IC50 and inactives only a lower limit.
# Target: Envelope glycoprotein gp160 (Human immunodeficiency virus 1, UniProt Q6QLK5)
# Assay: inhibitors of HIV fusion peptide binding, primary screen, biochemical, uHTS, fluorescence dequenching (AID 1986)
# Chain of Envelope glycoprotein gp160 (Q6QLK5 whole entry, the tested form may be a part): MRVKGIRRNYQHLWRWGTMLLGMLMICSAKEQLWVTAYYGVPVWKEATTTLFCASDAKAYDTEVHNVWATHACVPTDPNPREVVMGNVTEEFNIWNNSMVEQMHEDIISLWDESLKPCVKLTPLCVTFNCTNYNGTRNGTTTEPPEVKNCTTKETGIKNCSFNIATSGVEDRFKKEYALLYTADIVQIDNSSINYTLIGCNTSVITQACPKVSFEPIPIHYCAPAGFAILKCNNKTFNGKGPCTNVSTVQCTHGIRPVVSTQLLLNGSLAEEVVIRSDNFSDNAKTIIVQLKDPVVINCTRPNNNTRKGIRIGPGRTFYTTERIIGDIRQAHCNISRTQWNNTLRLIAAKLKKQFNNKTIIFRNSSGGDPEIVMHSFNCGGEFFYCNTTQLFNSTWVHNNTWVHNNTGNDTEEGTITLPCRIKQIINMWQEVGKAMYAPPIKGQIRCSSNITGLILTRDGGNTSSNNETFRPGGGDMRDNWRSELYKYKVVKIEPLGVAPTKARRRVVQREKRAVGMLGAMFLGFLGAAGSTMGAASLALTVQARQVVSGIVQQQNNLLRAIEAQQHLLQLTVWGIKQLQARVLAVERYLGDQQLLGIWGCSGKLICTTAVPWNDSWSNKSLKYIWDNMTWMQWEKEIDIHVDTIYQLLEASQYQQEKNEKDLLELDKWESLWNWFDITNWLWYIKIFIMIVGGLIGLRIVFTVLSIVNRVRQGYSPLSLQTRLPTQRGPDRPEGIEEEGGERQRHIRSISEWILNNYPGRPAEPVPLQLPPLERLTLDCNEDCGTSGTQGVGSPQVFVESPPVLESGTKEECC
row,Compound,IC50
1,O=C(O)/C=C/C(=O)Nc1ccc(C2(c3ccc(NC(=O)/C=C/C(=O)O)cc3)c3ccccc3-c3ccccc32)cc1,15 µM (active)
2,O=C(COc1cccc2ccccc12)Nc1ccc(Cl)cc1C(=O)O,31.3 µM (active)
3,O=C(O)C(c1ccccc1)N1C(=O)/C(=C\c2ccc(O)c(O)c2)SC1=S (stereo unspecified),13.2 µM (active)
4,Cc1ccc(Cl)cc1N1CCN(C(=O)Cc2c(C(=O)O)[nH]c3ccc(Cl)cc23)CC1,24.5 µM (active)
5,Cc1ccc(N2C(=O)/C(=C/c3ccc(CN(CCC#N)S(C)(=O)=O)o3)C(=O)NC2=S)cc1C,21.6 µM (active)
6,COc1ccc2c(c1)cc(C(=O)N/N=C/c1c(O)c(C(=O)O)cc3ccccc13)n2C,7.59 µM (active)
